For one assay, the system named is EGFR. In words: EGFR western blot gel mobility, H3255 cells. To be noted: lung adenocarcinoma cells, 10 μM NGI-1, 24 h. The class given is cell-based. As to the method: FIGS. 3A-3F illustrate the finding that NGI-1 disrupts EGFR glycosylation and cell surface expression. FIG. 3A illustrates EGFR western blots from H3255 treated with or without 10 μM NGI-1 for 24 h. Molecular weight size shifts are compared to PNGase digestion and tunicamycin treatment alone. FIG. 3B illustrates EGFR localization in H3255 cells after 24 h 10 μM NGI-1 treatment analyzed by western blot. Plasma membrane proteins present on the surface of H3255 cells were biotinylated using a non-permeable form of biotin, sulfo-NHS—SS-biotin, and precipitated by streptavidin agarose beads. Biotin-labeled plasma membrane proteins and the fraction of non-biotinylated proteins were subjected to SDS-PAGE and analyzed by western blot against EGFR. FIG. 3C illustrates EGFR localization in H3255 cells after 24 h 10 μM NGI-1 treatment analyzed by confocal microscopy. H3255 cells were subjected to immunofluorescence for EGFR protein (red) counterstained with (CRT; green) and colocalization was determined by confocal microscopy. Nuclei were counterstained with ToPro3 (cyan). […] Bar, 10 μm. FIG. 3D illustrates quantification of colocalization using Image J Colormap Software. […] ITB1 localization after 10 μM NGI-1 for 48 h analyzed by (FIG. 3E) surface biotinylation (FIG. 3F) confocal microscopy (green). […]

A further assay deals with A549 cells. In words: MTT proliferation assay, A549. Conditions: A549, 10 μM NGI-1 or 1 μM tunicamycin. The format is cell-based. As for the experimental part: FIGS. 4A-4H illustrate the finding that NGI-1 blocks RTK driven proliferation. FIG. 4A illustrates western blot analysis of EGFR phosphorylation (Y1173) and gel mobility in PC9 (EGFR-mutant) and A549 (k-ras mutant) NSCLC cells after 10 μM NGI-1 treatment for 24 h. […] Actin expression was used as a control for protein loading. FIG. 4B illustrates MTT assays results of PC9 following treatment with 10 μM NGI-1 or 1 μM tunicamycin for a total of 5 d. Relative proliferation id reported in fold increase from day 0. FIG. 4C illustrates MTT assays results of A549 following treatment with 10 μM NGI-1 or 1 μM tunicamycin for a total of 5 d. Relative proliferation id reported in fold increase from day 0. FIG. 4D illustrates protein phosphorylation profiles of PC9 cells analyzed by phospho-protein array to assess the response of PC9 to 10 μM NGI-1 for 24 h. FIG. 4E illustrates protein phosphorylation profiles of A549 cells analyzed by phospho-protein array to assess the response of A549 to 10 μM NGI-1 for 24 h. […]
Growth rates were determined by CellTiter 96 NonRadioactive Cell Proliferation Assay (Promega; Madison, Wis. USA) according to the manufacturer's directions. […] Cell numbers were estimated after 0, 3, and 5 days by adding MTT [(3-(4,5-Dimethylthiazol-2-yl)-2,5-diphenyltetrazolium bromide] reagent to the wells 4 hours before taking the spectrophotometric reading (absorbance at 570 nm).

With `Cc1cnc(NC(=O)c2cc(S(=O)(=O)N(C)C)ccc2N2CCCC2)s1` [NGI-1, 5-(N,N-Dimethylsulfamoyl)-N-(5-methylthiazol-2-yl)-2-(pyrrolidin-1-yl)benzamide], the “EGFR N-linked glycosylation (molecular weight on SDS-PAGE)” value with EGFR is on record as “blocked EGFR N-linked glycosylation”. Moreover, in the assay on A549 cells, the “effect on proliferation, MTT” value was “continued to proliferate”.
